Test results as given in patent publication US11266715B2, “C3A receptor agonists for use against ischemic brain injury, stroke, traumatic brain injury, spinal cord injury and neurodegenerative disorders” (priority 2016, dated 2022).

System: NeuN+ cells
Test: NeuN positive cell density in dorsal hippocampus after neonatal HI
Format: in vivo, mouse
Description: Neuronal nuclei (NeuN), growth associated protein 43 (GAP-43), synapsin I (SYN), vesicular glutamate transporter 1 (VGLUT1), Glial Fibrillary Acidic Protein (GFAP) and ionized calcium-binding adapter molecule 1 (Iba-1) were visualized in the cornu ammonis (CA) and dentate gyrus (DG) of the dorsal hippocampus by immunohistochemistry. Briefly, following heat-induced antigen retrieval with 0.01 M citrate buffer (pH 6, 0.05% Tween 20) for 3×5 min, sections were washed 3×5 min with PBS-T (0.05% Tween 20), non-specific protein binding was reduced by incubation with blocking buffer [4% normal donkey serum (NeuN and Iba-1), 1% bovine serum albumin (GAP-43 and SYN), 3% normal goat serum (VGLUT1), 2% bovine serum albumin (GFAP) in PBS-T] for 1 h at room temperature (RT). Tissue was then incubated with the primary antibody [anti-NeuN biotinylated (1:200, MAB 377B, Millipore, Mass., USA), anti-GAP-43 (1:1000, MAB347, Millipore, Mass., USA), anti-SYN (1:150, SC-7379, Santa Cruz, Calif., USA), anti-VGLUT1 (1:500, AB5905, Millipore, Mass., USA), anti-GFAP (1:200, Z0334, Dako, Stockholm, Sweden), anti-Iba-1 (1:500, 019-19741, Wako, Osaka, Japan)] in blocking buffer overnight at 4° C. One slide per staining batch was incubated only with blocking buffer without primary antibody and used as a negative control. Next, sections were washed 3×5 min with PBS-T and incubated with the secondary antibody [rabbit-anti mouse biotinylated Ig (1:200, GAP-43, E0354, Dako, Stockholm, Sweden), donkey-anti goat biotinylated Ig (1:200, SYN, 705065147, Jackson ImmunoResearch Inc., PA, USA), Alexa Fluor 488 goat-anti guinea pig Ig (1:500, VGLUT1, A11073, Molecular Probes, Oregon, USA), Alexa Fluor 488 goat-anti rabbit (1:2000, GFAP, A11034, Molecular Probes, Oregon, USA), donkey-anti rabbit biotinylated (1:500, Iba-1, 711-065-152, Jackson ImmunoResearch Inc., PA, USA), in blocking buffer for 1 h at RT. After washing 3×5 min with PBS-T, sections were incubated with Streptavidin-Cy3 (1:100 (GAP-43, SYN), 1:300 (NeuN), S6402, Sigma-Aldrich, Missouri, USA) in blocking buffer for 1 h at RT. Then, sections were washed 3×5 min with PBS-T, mounted with Pro Long Gold (P36931, Life Technologies, CA, USA) and cover slipped for 24 h before being sealed with nail polish. […]
NeuN positive cells, GFAP positive relative area, as well as GAP-43, SYN, and VGLUT1 positive puncta were counted by using MetaMorph software (ver. 7.8.6, Molecular Devices, CA, USA) on confocal images obtained with a 20× (NeuN and GFAP) or 63× (GAP-43, SYN, and VGLUT1) objective (Carl Zeiss LSM 700 Laser Scanning Microscope, Jena, Germany). Iba-1 positive cell somata were counted on bright field images obtained with a 20× objective (Nikon Eclipse 80i). […]

## C3a: Purified human C3a peptide (Complement Technologies), C3a receptor agonist, amino acid sequence SEQ ID NO: 1
Both HI groups, p<0.01 and p<0.05
  neuronal density in CA1 and CA3, ipsilesional vs contralesional hemisphere: decreased in the ipsilesional hemisphere
Data not shown
  NeuN+ cell density in the DG: No effect
p<0.01
  number of NeuN+ cells in injured CA3 vs sham mice: lower compared with sham mice
p<0.05 for PBS
  number of NeuN+ cells in injured CA1 vs sham mice: of PBS but not C3a treated mice was lower compared with sham mice
